Data from US5508310A, “Immunopotentiatory agents and physiologically acceptable salts thereof” (Burroughs Wellcome Co., priority 1992, dated 1996).
Values joined by “and” are separate entries in the source; they are usually repeats but may differ in a detail not shown here. Identical values can stand only once.

Legend:
Pneumocystis carinii = conditions: AIDS patients; Wofsy 1986; cited from earlier work
[1] = system: mouse colon adenocarcinoma 38 (MCA38); assay: Antitumour activity: outgrowth of subcutaneously implanted mouse colon adenocarcinoma 38 (MCA38) in C57BL/6 mice; assay type: in vivo, mouse (C57BL/6); conditions: for Tumour weight on day 24 after tumour implantation (individual mice): intraperitoneally, every alternate day, 9 doses, individual animal values; for Mean % red. (tumour weight) / Median % red. (tumour weight): vs controls (group A); for Mean tumour weight on day 24: controls mean 0.635; for Median tumour weight on day 24: controls median 0.636
Description: The activity of the tucaresol was evaluated against the outgrowth of subcutaneously implanted mouse colon adenocarcinoma 38 (MCA38) in female C57BL/6 mice, using the following protocol:
Day 0 Fifteen, female and 16 male C57BL/6 mice each im-
planted subcutaneously with one 2 mm cube of tumour.
Mice randomized and divided into three groups -
Group A, 5 females and 5 males, Group B, 5 females
and 5 males, Group C, 5 females and 6 males.
Day 5 Test groups B and C each dosed with 589C80 (1 mg or
to 0.2 mg per mouse dissolved in 0.2 ml PBS,
intraperitoneally) once every alternate day (total of 9
doses). Control mice (group A) given PBS alone.
All mice killed, tumours excised and weighed. Mean and
median tumour weight in test group compared with
Tucaresol was dissolved in PBS by dropwise addition of 1M KOH to pH 10.0 followed by dropwise addition of conc. HCL to return pH to neutral.
Dosing schedule where drug was given on alternate days was chosen in order to extend the dosing period over 14 rather than 7 days. By so doing tumours were exposed to the drug from day 13 right up until […] i.e. 2 days before the experiment was terminated.

[2] = system: mononuclear cell fraction of blood from healthy donors immunised with tetanus toxoid; assay type: cell-based, human (healthy donors)

In the case of N=C(N)c1ccc(OCCCCCOc2ccc(C(=N)N)cc2)cc1 [pentamidine], the “Effectiveness in Pneumocystis carinii pneumonia” value (Pneumocystis carinii) is listed as 50-70% and the “Incidence of adverse reactions” value (Pneumocystis carinii) is listed as “around 50%”.

For O=Cc1c(O)cccc1OCc1ccc(C(=O)O)cc1 [Tucaresol], the “Tumour weight on day 24 after tumour implantation (individual mice)” value ([1]; Group B, 1.0 mg/mouse) was 0.740 grammes and 0.695 grammes and 0.358 grammes and 0.303 grammes and 0.298 grammes and 0.090 grammes and 0.079 grammes and 0.038 grammes and 0.022 grammes, the “Mean % red. (tumour weight)” value ([1]; Group B, 1.0 mg/mouse) was 54.2% and the “Median % red. (tumour weight)” value ([1]; Group B, 1.0 mg/mouse) was 53.15%. For the same compound, the “Mean tumour weight on day 24” value ([1]; Group B, 1.0 mg/mouse, S.D. 0.272) was 0.291 grammes, the “Median tumour weight on day 24” value ([1]; Group B, 1.0 mg/mouse) was 0.298 grammes and the “Tumour weight on day 24 after tumour implantation (individual mice)” value ([1]; Group C, 0.2 mg/mouse) was 0.802 grammes and 0.272 grammes and 0.230 grammes and 0.197 grammes and 0.181 grammes and 0.126 grammes and 0.085 grammes and 0.029 grammes and 0.019 grammes and 0.006 grammes. The “Mean % red. (tumour weight)” value ([1]; Group C, 0.2 mg/mouse) was 70.4%, the “Median % red. (tumour weight)” value ([1]; Group C, 0.2 mg/mouse) was 80.19% and the “Mean tumour weight on day 24” value ([1]; Group C, 0.2 mg/mouse, S.D. 0.222) was 0.188 grammes. The “Median tumour weight on day 24” value ([1]; Group C, 0.2 mg/mouse) was 0.126 grammes and the “Inhibition of outgrowth of subcutaneously implanted MCA38” value ([1]; syngeneic C57BL/6 mice, result in words) was “inhibited the outgrowth”.

For trimethoprim-sulphamethoxazole, the “Effectiveness in Pneumocystis carinii pneumonia” value (Pneumocystis carinii) is listed as 50-70%.

With O=CCCc1ccccc1 [Compound 5, 3-Phenylproponion-aldhyde] the “IC50 Ratio with 4-Hydroxyphenylacetaldehyde” value [2] was 40.
